Calls of active or inactive are those of the source. No cut-off for these calls is given here.

We go through 5 compounds from ChEMBL document CHEMBL3045760, “Bioactive xanthones with effect on P-glycoprotein and prediction of intestinal absorption” (Med Chem Res, 2013).

Series [1] has as its target T1, ATP-dependent translocase ABCB1 (Homo sapiens, UniProt P08183). Nature of the series: Inhibition of P-glycoprotein in doxorubicin-resistant Homo sapiens (human) K562 cells overexpressing P-gp assessed as increase in intracellular Rh123 accumulation at 10 to 20 uM after 1 hr by flow cytometric analysis. The class given is cell-based. The conditions noted are these: k562, 1 h. (A flow cytometer gives signals particle by particle.)

Series [2] can be described thus: Apparent permeability from apical to basolateral side of Homo sapiens (human) Caco2 cells at 100 uM by HPLC-UV analysis. The class given is ADME, cell-based. The conditions noted are these: Caco-2. Background: Caco-2 monolayers are a common model of the intestinal barrier.
The species named for a further series is Homo sapiens. The series is described as follows: Non-competitive inhibition of Homo sapiens (human) P-glycoprotein ATPase activity at 200 uM after 40 min by luminescence analysis.
For another series, the system named is Caco-2. Nature of the series: (§1) Drug recovery in Homo sapiens (human) Caco2 cells at 100 uM by HPLC-UV analysis. The class given is ADME, cell-based. The following applies: caco-2, 100 µM.
Series [3] in a line: as §1. The class given is ADME, cell-based, Caco-2. The conditions noted are these: Caco-2, read-out: Drug recovery.
Series [4] addresses T1, ATP-dependent translocase ABCB1. Nature of the series: Activation of P-glycoprotein in doxorubicin-resistant Homo sapiens (human) K562 cells overexpressing P-gp assessed as decrease in intracellular Rh123 accumulation at 10 to 20 uM after 1 hr by flow cytometric analysis. The class given is cell-based. The conditions noted are these: k562, 1 h.

T1 sequence (P08183 whole entry): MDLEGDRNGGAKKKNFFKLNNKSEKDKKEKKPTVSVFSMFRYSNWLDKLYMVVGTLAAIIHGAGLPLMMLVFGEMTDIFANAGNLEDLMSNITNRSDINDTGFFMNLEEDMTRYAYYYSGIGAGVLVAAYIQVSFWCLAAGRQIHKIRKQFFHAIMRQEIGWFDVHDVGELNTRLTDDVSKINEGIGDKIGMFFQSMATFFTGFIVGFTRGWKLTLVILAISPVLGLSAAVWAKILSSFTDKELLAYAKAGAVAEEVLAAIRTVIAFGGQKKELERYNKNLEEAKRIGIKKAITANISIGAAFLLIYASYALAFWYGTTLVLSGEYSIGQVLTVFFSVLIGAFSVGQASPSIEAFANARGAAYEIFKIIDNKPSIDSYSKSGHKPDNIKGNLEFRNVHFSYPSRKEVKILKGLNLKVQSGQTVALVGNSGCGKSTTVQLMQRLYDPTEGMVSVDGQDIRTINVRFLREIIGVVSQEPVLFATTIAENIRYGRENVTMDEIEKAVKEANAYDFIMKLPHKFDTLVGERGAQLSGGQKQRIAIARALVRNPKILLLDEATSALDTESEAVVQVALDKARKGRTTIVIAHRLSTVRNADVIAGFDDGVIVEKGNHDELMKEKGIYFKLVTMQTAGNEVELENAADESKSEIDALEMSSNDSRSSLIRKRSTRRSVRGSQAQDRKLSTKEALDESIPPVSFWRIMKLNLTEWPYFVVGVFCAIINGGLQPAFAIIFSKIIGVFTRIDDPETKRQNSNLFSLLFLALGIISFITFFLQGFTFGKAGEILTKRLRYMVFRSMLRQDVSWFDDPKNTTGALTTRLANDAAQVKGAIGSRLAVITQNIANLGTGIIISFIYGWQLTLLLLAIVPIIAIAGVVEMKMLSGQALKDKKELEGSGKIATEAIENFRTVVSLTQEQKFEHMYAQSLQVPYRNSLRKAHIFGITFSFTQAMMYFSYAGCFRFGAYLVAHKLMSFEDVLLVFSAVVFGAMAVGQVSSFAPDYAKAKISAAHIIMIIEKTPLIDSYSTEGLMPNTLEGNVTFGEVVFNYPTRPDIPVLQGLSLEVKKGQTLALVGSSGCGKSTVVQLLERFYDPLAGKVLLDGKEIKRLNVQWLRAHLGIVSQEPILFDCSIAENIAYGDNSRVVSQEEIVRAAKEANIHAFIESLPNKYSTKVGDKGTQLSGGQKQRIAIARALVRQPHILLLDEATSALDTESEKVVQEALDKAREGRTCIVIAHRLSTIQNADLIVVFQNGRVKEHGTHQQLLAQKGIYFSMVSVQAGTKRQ

On to `COc1ccc(CCN(C)CCCC(C#N)(c2ccc(OC)c(OC)c2)C(C)C)cc1OC` (stereo not given), for which the “inhibition (INH)” value in series [1] is recorded as “Active”.
Take `COc1cc(C2Oc3ccc4c(=O)c5ccccc5oc4c3OC2CO)ccc1O` (stereo not given): the “inhibition (INH)” value in series [1] was “Active”. The apical-to-basolateral permeability (Papp A→B) at 100 µM in series [2] amounted to 14.4 ×10⁻⁶ cm/s. The inhibition result in the series listed under Homo sapiens was “Active”. Besides, the Drug recovery in the series with Caco-2 stood at 164.7%.
Consider `CC1(C)CCc2cc3c(=O)c4ccccc4oc3c(O)c2O1`, for which, in series [1], the “inhibition (INH)” value is reported as “Active”. Moreover, the apparent permeability from apical to basolateral (Papp A→B) at 100 µM in series [2] worked out at 14.2 ×10⁻⁶ cm/s. Besides, the inhibition entry in the series listed under Homo sapiens is “Active”. Moreover, the recovery at 100 µM in series [3] is 29.4%.
Regarding `O=c1c2ccccc2oc2ccc(O)c(O)c12`, in series [2], the apical-to-basolateral permeability (Papp A→B) at 100 µM was 15.2 ×10⁻⁶ cm/s. Further, the recovery at 100 µM in series [3] amounted to 40.7%. The outcome in series [4] was Active.
Consider `O=c1c2ccccc2oc2c(O)c(O)ccc12` [3,4-DIHYDROXYXANTHONE], for which the Papp A→B at 100 µM in series [2] was determined as 19.4 ×10⁻⁶ cm/s. Further, the recovery at 100 µM in series [3] was found to be 53.6%. Besides, the result in series [4] was Active.

One may read the Papp A→B as how fast a substance crosses the layer from the apical side.
